Patent publication US8258321B2, “Beta-lactone compounds” (Burnham Institute for Medical Research, priority 2007, dated 2012)
Read-outs that look alike come from different tables or passages of the source.

Experiments:
[1] = test system: MB-MDA-231 cells; test: Cell Viability Assay (MTS), MB-MDA-231; type: cell-based; settings: 3 k 231, 48 h
Method: (§1) Cell Viability Assays for Determination of Test Compound Potencies
(§2) Plates were incubated for 2 h and absorbance was assayed at 490 nm. Background levels of formazan formation were measured in medium alone. IC50 values were derived from dose-response curves.

[2] = test system: human fibroblast cells; test: Cell Viability Assay (MTS), human fibroblast cells (HFF); type: cell-based; settings: 48 h
Method: as §1, §2

[3] = molecular target: T1, FAS TE (Homo sapiens, UniProt P49327); test: Fluorogenic Assay for Detection of FASTE Inhibition (4-MUH substrate); type: biochemical; settings: 500 nM FAS TE, 30 min pre-incubation at 37° C.
T1 construct: The unique carboxyl terminal thioesterase domain of fatty acid synthase
T1 sequence (P49327 2207-2511 limits assumed): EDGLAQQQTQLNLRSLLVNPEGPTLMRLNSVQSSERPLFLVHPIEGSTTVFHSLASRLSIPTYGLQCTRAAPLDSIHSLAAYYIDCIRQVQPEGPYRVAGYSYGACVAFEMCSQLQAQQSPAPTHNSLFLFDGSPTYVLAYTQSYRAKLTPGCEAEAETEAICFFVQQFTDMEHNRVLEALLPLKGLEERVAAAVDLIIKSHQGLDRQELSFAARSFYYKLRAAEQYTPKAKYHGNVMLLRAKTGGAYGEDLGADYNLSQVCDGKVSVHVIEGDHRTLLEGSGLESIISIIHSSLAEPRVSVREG
Method: Fluorogenic Assay for Detection of FASTE Inhibition
The synthetic fluorogenic substrate, 4-methylumbelliferyl heptanoate (4-MUH), was purchased from Sigma (St. Louis, Mo.). The reaction mixture consisted of 500 nM FAS TE in buffer (100 mM Tris-HCl, 50 mM NaCl at pH 7.4) which was pre-incubated with 2.5 μL test compounds dissolved in DMSO at final concentrations of […] and/or 0.08-10 μM at 37° C. for 30 minutes. […] 4-MUH incubated without enzyme served as a background control. Results are the average of triplicate time points.

[4] = Homo sapiens, Fibroblast, 3 k HFF, read-out: avg 3 k HFF IC50
[5] = Homo sapiens, Fibroblast, 50 k HFF, read-out: avg 50 k HFF IC50
[6] = 3 k HFF, read-out: avg 3 k HFF IC50
[7] = 50 k HFF, read-out: avg 50 k HFF IC50

Ki [3] [µM] | Structure (SMILES) | IC50 ([1]; 48 h) [µM] | IC50 [2, 4] [µM] | IC50 [2, 5] [µM] | IC50 [1] [µM] | IC50 [2, 6] [µM] | IC50 [2, 7] [µM]
– | CCCCCCCCCCC[C@@H](CC1OC(=O)[C@H]1CC)OC(=O)CNC=O (some centres unmarked) | 88.4 | > 100 | > 100 | – | – | –
0.22 | C=CCC[C@@H](C[C@@H]1OC(=O)[C@H]1CCCCCC)OC(=O)[C@H](Cc1ccccc1)NC=O | 24.5 | 73.6 | 65 | – | – | –
0.23 | C/C=C/CC[C@@H](C[C@@H]1OC(=O)[C@H]1CCCCCC)OC(=O)[C@H](Cc1ccccc1)NC=O | 38.3 | 61.2 | 52.5 | – | – | –
0.23 | CCCCCCCCCCC[C@H](C[C@@H]1OC(=O)[C@H]1CC)OC(=O)CNC=O | 1.3 | – | 9.7 | – | – | –
0.06 | C=CCC[C@H](CC1OC(=O)[C@H]1CCCCCC)OC(=O)CNC=O (some centres unmarked) [listing 1 of 2 here] | – | – | – | 54 | > 100 | > 100
– | CCCCCCCCCCC[C@@H](C[C@@H]1OC(=O)[C@H]1CCCCCC)OC(=O)c1ccccc1 [drawing 150] | – | – | – | > 100 | > 100 | > 100
0.1 | CCCCCC[C@@H]1C(=O)O[C@H]1C[C@@H](COS(=O)(=O)c1ccc(C)cc1)OC(=O)CNC=O | – | – | – | – | – | –
0.48 | CCCCCCCCCCC[C@@H](O)C[C@@H]1OC(=O)[C@H]1CCCCCC | 26.8 | 40.4 | 29.3 | – | – | –
– | C/C=C/CC[C@H](CC1OC(=O)[C@H]1CCCCCC)OC(=O)CNC=O (some centres unmarked) | 57.3 | 39.9 | 37 | – | – | –
0.15 | CCCCCCC/C=C/CC[C@@H](C[C@@H]1OC(=O)[C@H]1CCCCCC)OC(=O)[C@H](Cc1ccccc1)NC=O | > 100 | 24.9 | 35.9 | – | – | –
– | CCCCCC[C@@H]1C(=O)OC1C[C@@H](C)OC(=O)CNC=O (some centres unmarked) | > 100 | > 100 | > 100 | – | – | –
– | CCCCCCCCCCC[C@@H](C[C@@H]1OC(=O)[C@H]1CCCCCC)OC(=O)CNC=O | 4.8 | 19.9 | 27.6 | – | – | –
– | CCCCCCCCCCC[C@@H](C[C@@H]1OC(=O)[C@H]1CCCCCC)OC(=O)[C@H](CC(C)C)NC=O | 20.1 | > 100 | > 100 | – | – | –
– | CCCCCC[C@@H]1C(=O)O[C@H]1C[C@H](CCCCC)OC(=O)[C@@H](NC=O)C(C)C | – | – | > 100 | – | – | –
0.16 | CCCCCCCCCCC[C@H](CC1OC(=O)[C@H]1CCCC)OC(=O)CNC=O (some centres unmarked) | 35.7 | 31.1 | 43.2 | – | – | –
– | C/C=C/CC[C@H](C[C@@H]1OC(=O)[C@H]1CCCCCC)OC(=O)[C@@H](NC=O)C(C)C | – | 101 | > 100 | – | – | –

Ki [3] [µM] | Structure (SMILES) | IC50 ([1]; 48 h) [µM] | IC50 [2, 4] [µM] | IC50 [2, 5] [µM] | IC50 [1] [µM] | IC50 [2, 6] [µM] | IC50 [2, 7] [µM]
0.53 | C=CCC[C@H](C[C@@H]1OC(=O)[C@H]1CCCCCC)OC(=O)CNC=O | – | – | – | – | – | –
– | CCCCCC[C@@H]1C(=O)OC1C[C@@H](COS(=O)(=O)c1ccc(C)cc1)OC(=O)CNC=O (some centres unmarked) | > 100 | > 100 | > 100 | – | – | –
– | CCCCCCCCCCC[C@@H](CC1OC(=O)[C@H]1CCCCCC)OC(=O)CN(C)C (some centres unmarked) [drawing 171] | 52.1 | – | 75.6 | – | 105 | –
0.17 | CCCCCCCCCCCCC[C@@H](CC1OC(=O)[C@H]1CCCCCC)OC(=O)[C@H](Cc1cnc[nH]1)NC=O (some centres unmarked) | 37.1 | 15.8 | 28 | – | – | –
0.04 | CCCCCCCCCCCCC[C@H](C[C@@H]1OC(=O)[C@@H]1CCCCCC)OC(=O)CNC=O | – | – | – | – | – | –
0.09 | CCCCCC[C@@H]1C(=O)O[C@H]1C[C@@H](C)OC(=O)CNC=O | – | – | – | – | – | –
– | CCCCCCCCCCC[C@@H](C[C@@H]1OC(=O)[C@H]1CCCCCC)OC(=O)c1ccccc1 [drawing 169] | > 100 | > 100 | > 100 | – | – | –
– | CCCCCCCCCCC[C@H](C[C@@H]1OC(=O)[C@H]1CCCCCC)OC(=O)CNC=O | 11.7 | 46.8 | 40.5 | – | – | –
– | CCCCCCCCCCC[C@@H](C[C@@H]1OC(=O)[C@H]1CCCCCC)OC(=O)CN(C)C [drawing 152] | – | – | – | 26.9 | 37.3 | 49.3
– | CCCCCCCCCCCCC[C@H](CC1OC(=O)[C@@H]1CCCCCC)OC(=O)CNC=O (some centres unmarked) | > 100 | > 100 | > 100 | – | – | –
– | C/C=C/CC[C@@H](C[C@@H]1OC(=O)[C@H]1CCCCCC)OC(=O)[C@@H](NC=O)C(C)C | 23 | 35 | 27.6 | – | – | –
0.16 | CCCCCCCCCCC[C@@H](C[C@@H]1OC(=O)[C@H]1CC)OC(=O)CNC=O | – | – | – | – | – | –
0.15 | CCCCCC[C@@H]1C(=O)O[C@H]1C[C@H](CC/C=C/c1ccc(F)cc1)OC(=O)[C@H](CC(C)C)NC=O | 14.1 | 32.9 | 49.9 | – | – | –
– | CCCCCCC/C=C/CC[C@@H](C[C@@H]1OC(=O)[C@H]1CCCCCC)OC(=O)[C@H](CC(C)C)NC=O | 62.5 | 43.9 | 94.9 | – | – | –
0.23 | CCCCCC[C@@H]1C(=O)O[C@H]1C[C@H](CC/C=C/COCCOCCOCC(=O)OCc1ccccc1)OC(=O)[C@H](CC(C)C)NC=O | 47.3 | 70.4 | > 100 | – | – | –
– | C=CCC[C@H](CC1OC(=O)[C@H]1CCCCCC)OC(=O)CNC=O (some centres unmarked) [listing 2 of 2 here] | > 100 | > 100 | > 100 | – | – | –
